Experimental data published in publication PMC11742080, “Decavanadate Compound Displays In Vitro and In Vivo Antitumor Effect on Melanoma Models” (Bioinorganic Chemistry and Applications, 2025).

Assays:
[1] = test system: IGR37 human melanoma cells; test: MTT cell viability assay, IGR37; type: cell-based
Description: (§1) The MTT assay was first described as a sensitive, quantitative, and reliable colorimetric assay to measure the viability, proliferation, and activation of cells. Cell viability was assessed at 24 and 72 h of treatment to evaluate cytotoxicity and the effect on cell proliferation of the decavanadate compound, respectively. The concentrations of the decavanadate compound have been determined by weighing the compound in its crystal form and then solubilizing it in distilled water.
(§2) All cell lines were seeded in 96-well plates (Nunc, Roskilde, Denmark) at a density of 10^4 cells per well and were incubated overnight, before treatment with different concentrations of the decavanadate compound. After 24 or 72 h of treatment, fresh media solution containing MTT at 0.5 mg/mL was added to cells and incubated for 3 h at 37°C. The formed formazan crystals were then dissolved in DMSO, and the absorbance was measured at 560 nm using a BioTek EON Microplate Spectrophotometer (Fisher Scientific). Cell viability was expressed as a percentage of the viable cell number of the untreated cells (control [CTR]).
(§3) The concentration of the decavanadate compound required for 50% growth inhibition (IC50 value) was estimated as resulting in a 50% decrease in absorbance, compared to the CTR.

[2] = test system: IGR39 human melanoma cells; test: Cell adhesion assay (collagen, fibronectin, poly-L-lysine); type: cell-based
Description: Adhesion assays were performed as previously described by Morjen et al.. Briefly, flat-bottom 96-well microtiter plates were coated for 2 h at 37°C with fibronectin or collagen at 10 μg/mL, as extracellular matrix (ECM) proteins, or poly-L-lysine at 50 μg/mL, as a nonspecific attachment substrate. Plates were then washed with PBS and blocked by BSA. IGR39 cells were harvested and resuspended in DMEM, in the presence or absence (CTR) of the tested molecule. After incubation for 30 min at room temperature, cells were added to coated wells in a volume of 50 μL (50,000 cells) and allowed to adhere to the substrate for 1 h at 37°C. Unattached cells were removed by gently washing three times with an adhesion buffer. Residual attached cells were fixed by 1% glutaraldehyde, stained by 0.1% crystal violet, and lysed with 1% SDS. The absorbance was then measured at 600 nm by a microplate reader.

[3] = test system: IGR39 human melanoma cells; test: Wound healing (scratch) cell migration assay; type: cell-based; details: 24 h treatment
Description: Wound healing (or scratch) assay is a method to measure two-dimensional cell migration. An artificial gap is generated on a confluent cell monolayer, and the movement is tracked via microscopy or other imaging. Melanoma cells were seeded in 24-well plates at 15 × 10^4 cells per well and incubated for 24–48 h. After cells reached 90% confluence, wounds were generated using a 10 μL micropipette tip. Media were removed, and the cells were washed with 500 μL PBS and then incubated in a fresh medium containing different concentrations (not showing cytotoxic effect) of the decavanadate compound. After 24 h of treatment, cells were washed with PBS, fixed with cold ethanol, and stained with Giemsa. Images were acquired on an inverted microscope at T0 and after 24 h (T24). The percentage of cell migration was calculated using the following formula: cell migration(%)=[(T0 − T24))/(T0)] × 100 where T0 is the wound area at zero time and T24 is the wound area after 24 h. All the pictures were taken with a DM-IRE microscope (Leica, Rueil-Malmaison, France) coupled with a digital camera (CCD camera CoolSNAP FX, Princeton Instruments, Trenton, NJ).

[4] = test system: DMBA/croton oil-induced skin lesions in Swiss albino mice; test: Chemical-induced (DMBA/croton oil) lesion model in mice; type: in vivo; details: cotreatment, 2.5 mg/kg s.c.
Description: Two days before the beginning of the experiment, we selected 32 male Swiss albino mice and clipped the hair on their backs in a 2 × 2 cm^2 area. The design of the experiment was performed as reported by Vähätupa et al. (Figure S1). The animals were randomly divided into […] (8 animals in each group): • i. CTR− group: represented the negative CTR group, where mice received 100 μL of acetone only. • ii. CTR+ group: served as the positive CTR group, where mice were treated […] with a single dose of DMBA (50 μg/100 μL acetone) on the shaven area on their backs. Seven days later, croton oil (50 μL/100 μL acetone) was applied twice a week until the end of the experiment (6 weeks). • iii. CT group (cotreatment group): animals received a single dose of DMBA (50 μg/100 μL acetone) on the shaven area on their backs. Seven days later, croton oil (50 μL/100 μL acetone) was applied twice. Then, mice received croton oil and 2.5 mg/kg of the decavanadate compound (dissolved in PBS) by subcutaneous injection on their backs. The Mg2Na2V10O28·20H2O compound was given to animals 15 min after each croton oil application from the third week until the sixth week (the end of the protocol).

[5] = test system: B16-F10 murine melanoma cells; test: MTT cell viability assay, B16-F10; type: cell-based
Description: as §1, §2, §3

[6] = test system: IGR39 human melanoma cells; test: MTT cell viability assay, IGR39; type: cell-based
Description: as §1, §2, §3

[7] = Stability of the stock solution (activity retained); type: physicochemical; details: 1 mg/mL stock kept at +4°C, experiments repeated after 2 months
Description: Four cutaneous melanoma cell lines IGR39, IGR37, SKMEL28, and B16-F10 were treated with increasing concentrations of the decavanadate compound (Figure 3). A stock solution was prepared at a concentration of 1 mg/mL and kept at a temperature of +4°C. The dilutions were made just before the treatment. Figures 3(a) and 3(b) show the dose–response effect of Mg2Na2V10O28·20H2O compound on the viability of different melanoma cell lines, after 24 and 72 h of treatments, respectively.

dimagnesium disodium decavanadate icosahydrate [Mg2Na2V10O28·20H2O]
IC50 ([1]; IGR37, 24 h treatment): 12.7 µM | IC50 ([1]; IGR37, 72 h treatment): 1.4 µM | IC50, cell viability ([1]; IGR37, 72 h treatment): 2 µg/mL | Inhibition of adhesion of IGR39 cells on fibronectin ([2]; 5 μg/mL): 47% | IC50, IGR39 cell attachment to collagen ([2]; collagen 10 μg/mL coating, 30 min pretreatment, 1 h adhesion): 3.78 µg/mL | IC50 ([2]; collagen 10 μg/mL coating, 30 min pretreatment, 1 h adhesion, read-out: IC50, IGR39 cell attachment to collagen): 2.67 µM | Reduction of IGR39 cell attachment to collagen ([2]; highest concentration 5 μg/mL (3.5 μM)): 60% | Effect on adhesion of IGR39 cells to poly-L-lysine ([2]; up to 5 μg/mL, nonspecific substrate): no effect | IC50 [3]: 2.23 µM | IC50, IGR39 cell migration [3]: 3.16 µg/mL | Skin histology (dermal inflammatory infiltrate) [4]: attenuation of this inflammatory state | Mortality and behavior in DMBA/croton oil-treated mice ([4]; 6-week protocol): neither mortality nor changes in the behavior | IC50 ([5]; B16-F10, 24 h treatment): 7.3 µM | IC50 ([5]; B16-F10, 72 h treatment): 2.8 µM | IC50 ([6]; IGR39, 24 h treatment): 18 µM | IC50 ([6]; IGR39, 72 h treatment): 5.2 µM | Stability of stock solution [7]: the compound is stable
